In ChEMBL document CHEMBL1155765, “Haterumaimides F-I, four new cytotoxic diterpene alkaloids from an ascidian Lissoclinum species” (J Nat Prod, 2001) one finds inhibition and IC50 data, which are given here for 1 compound.

Data set [1] in a line: Toxicity against Sea urchin fertilized eggs assessed as inhibition of cell division at 5 ppm. Also on record: species or system Egg. Particulars: echinoidea.
For data set [2], the system named is P388. The experiment in a line: Cytotoxicity against mouse P388 cells. Type of data set: functional, cell-based.

With `CC1(C)C[C@H](Cl)C[C@]2(C)[C@H]3C[C@@H]([C@H]4CC(=O)NC4=O)O[C@@]3(C)CC(=O)[C@@H]12` [HATERUMAIMIDE I], the inhibition at 5 ppm in data set [1] stood at 80%. The compound also gave a half-maximal inhibitory concentration (IC50) in data set [2] of more than 10 µg/mL.
